The assay has as its system Plasmodium falciparum. Nature of the assay: Antimalarial activity against blood stage Plasmodium falciparum 3D7 infected in human erythrocytes assessed as reduction in parasitemia after 72 hrs by SYBR green I fluorescence-based method. It is filed as functional, organism-based. The note with it: 3D7, 72 h.

Take `C=C[C@H]1CN2CC[C@H]1C[C@@H]2[C@H](OCCc1cn(-c2ccc(Cl)cc2)nn1)c1ccnc2ccc(OC)cc12`: the IC50 worked out at 41 nM.

For the molecule `C=C[C@H]1CN2CC[C@H]1C[C@@H]2[C@H](OCCc1cn(CCCc2ccccc2)nn1)c1ccnc2ccc(OC)cc12`, the concentration for half-maximal inhibition (IC50) is 27 nM.

As to `C=C[C@H]1CN2CC[C@H]1C[C@@H]2[C@H](OCc1cn(-c2ccccc2[N+](=O)[O-])nn1)c1ccnc2ccc(OC)cc12`, the IC50 came out at 1300 nM.

As to `C=C[C@H]1CN2CC[C@H]1C[C@H]2[C@H](O)c1ccnc2ccc(OC)cc12` [QUININE], the IC50 was found to be 58 nM.

Turning to `C=C[C@H]1CN2CC[C@H]1C[C@@H]2[C@H](OCc1cn([C@@H](C)C(=O)O)nn1)c1ccnc2ccc(OC)cc12`, the half-inhibitory concentration (IC50) amounted to 41000 nM.

For the molecule `C=C[C@H]1CN2CC[C@H]1C[C@@H]2[C@H](OCc1cn(-c2ccccc2Cl)nn1)c1ccnc2ccc(OC)cc12`, the IC50 turned out to be 20000 nM.

As for `C=C[C@H]1CN2CC[C@H]1C[C@@H]2[C@H](OCc1cn(-c2ccccn2)nn1)c1ccnc2ccc(OC)cc12`, the IC50 is 5700 nM.

As to `C=C[C@H]1CN2CC[C@H]1C[C@@H]2[C@H](OCc1cn(CC(=O)N[C@@H](Cc2ccccc2)C(=O)O)nn1)c1ccnc2ccc(OC)cc12`, the IC50 came out at 5500 nM.

In the case of `C=C[C@H]1CN2CC[C@H]1C[C@@H]2[C@H](OCc1cn(/C=C/n2nnc3ccccc32)nn1)c1ccnc2ccc(OC)cc12`, the IC50 came out at 1500 nM.

On to `C=C[C@H]1CN2CC[C@H]1C[C@@H]2[C@H](OCc1cn(-c2ccc([N+](=O)[O-])cc2)nn1)c1ccnc2ccc(OC)cc12`, for which the IC50 is 640 nM.

For the molecule `C=C[C@H]1CN2CC[C@H]1C[C@@H]2[C@H](OCc1cn(Cc2ccc([N+](=O)[O-])cc2)nn1)c1ccnc2ccc(OC)cc12`, the half-maximal inhibitory concentration (IC50) worked out at 1200 nM.

For the molecule `C=C[C@H]1CN2CC[C@H]1C[C@@H]2[C@H](OCc1cn(Cc2ccc(C)cc2)nn1)c1ccnc2ccc(OC)cc12`, the IC50 is 450 nM.

Turning to `C=C[C@H]1CN2CC[C@H]1C[C@@H]2[C@H](OCCc1cn(-c2ccc([N+](=O)[O-])cc2)nn1)c1ccnc2ccc(OC)cc12`, the IC50 is 345 nM.

Take `C=C[C@H]1CN2CC[C@H]1C[C@@H]2[C@H](OCc1cn(CC(=O)N[C@@H](CC(C)C)C(=O)O)nn1)c1ccnc2ccc(OC)cc12`: the half-maximal inhibitory concentration (IC50) came out at 12000 nM.

For the molecule `C=C[C@H]1CN2CC[C@H]1C[C@@H]2[C@H](OCc1cn(Cn2nnc3ccccc32)nn1)c1ccnc2ccc(OC)cc12`, the IC50 was 4800 nM.

For `C=C[C@H]1CN2CC[C@H]1C[C@@H]2[C@H](OCc1cn(CCCc2ccccc2)nn1)c1ccnc2ccc(OC)cc12`, the IC50 worked out at 890 nM.

As for `C=C[C@H]1CN2CC[C@H]1C[C@@H]2[C@H](OCCc1cn(-c2ccccc2[N+](=O)[O-])nn1)c1ccnc2ccc(OC)cc12`, the IC50 was found to be 3300 nM.

As for `C=C[C@H]1CN2CC[C@H]1C[C@@H]2[C@H](OCCc1cn(-c2ccccc2Cl)nn1)c1ccnc2ccc(OC)cc12`, the half-maximal inhibitory concentration (IC50) is 37 nM.

With `C=C[C@H]1CN2CC[C@H]1C[C@@H]2[C@H](OCc1cn([C@@H](Cc2c[nH]c3ccccc23)C(=O)O)nn1)c1ccnc2ccc(OC)cc12`, the IC50 stood at 8400 nM.

With `C=C[C@H]1CN2CC[C@H]1C[C@@H]2[C@H](OCc1cn(-c2cccc(C#N)c2)nn1)c1ccnc2ccc(OC)cc12`, the IC50 turned out to be 2000 nM.

As to `C=C[C@H]1CN2CC[C@H]1C[C@@H]2[C@H](OCc1cn([C@H](C(=O)N(CC)CC)C(C)C)nn1)c1ccnc2ccc(OC)cc12`, the IC50 was found to be 880 nM.

As for `C=C[C@H]1CN2CC[C@H]1C[C@@H]2[C@H](OCc1cn([C@@H](Cc2ccccc2)C(=O)O)nn1)c1ccnc2ccc(OC)cc12`, the IC50 is 7700 nM.

For the molecule `C=C[C@H]1CN2CC[C@H]1C[C@@H]2[C@H](OCc1cn(CC(OC)OC)nn1)c1ccnc2ccc(OC)cc12`, the IC50 is 3400 nM.

Regarding `C=C[C@H]1CN2CC[C@H]1C[C@@H]2[C@H](OCc1cn(-c2ccc(OC)cc2)nn1)c1ccnc2ccc(OC)cc12`, the IC50 was found to be 2200 nM.

In the case of `C=C[C@H]1CN2CC[C@H]1C[C@@H]2[C@H](OCCc1cn(-c2ccc(OC)cc2)nn1)c1ccnc2ccc(OC)cc12`, the half-inhibitory concentration (IC50) came out at 43 nM.

`C=C[C@H]1CN2CC[C@H]1C[C@@H]2[C@H](OCc1cn(Cc2ccccc2)nn1)c1ccnc2ccc(OC)cc12`: the IC50 came out at 790 nM.

For `C=C[C@H]1CN2CC[C@H]1C[C@@H]2[C@H](OCc1cn([C@@H](CC(C)C)C(=O)O)nn1)c1ccnc2ccc(OC)cc12`, the IC50 amounted to 31000 nM.

As for `C=C[C@H]1CN2CC[C@H]1C[C@@H]2[C@H](OCc1cn(-c2ccc(Cl)cc2)nn1)c1ccnc2ccc(OC)cc12`, the IC50 amounted to 900 nM.

Turning to `C=C[C@H]1CN2CC[C@H]1C[C@@H]2[C@H](OCCc1cn(-c2ccc(C)cc2)nn1)c1ccnc2ccc(OC)cc12`, the IC50 came to 40 nM.

Take `C=C[C@H]1CN2CC[C@H]1C[C@@H]2[C@H](OCc1cn([C@H](C(=O)O)C(C)C)nn1)c1ccnc2ccc(OC)cc12`: the IC50 came out at 20000 nM.

As to `C=C[C@H]1CN2CC[C@H]1C[C@@H]2[C@H](OCCc1cn(Cc2ccccc2)nn1)c1ccnc2ccc(OC)cc12`, the IC50 was 30 nM.

`C=C[C@H]1CN2CC[C@H]1C[C@@H]2[C@H](OCc1cn(-c2ccccc2C#N)nn1)c1ccnc2ccc(OC)cc12`: the IC50 was found to be 1000 nM.

A word on the IC50: it is the concentration that gives 50% inhibition.

These data come from ChEMBL document CHEMBL3813626, “Synthesis, antimalarial properties and 2D-QSAR studies of novel triazole-quinine conjugates” (Bioorg Med Chem, 2016).
